Reference: US20250282790A1 (Temple University-Of The Commonwealth System of Higher …, priority 2016, published 2025)

target: 5HT7 receptors (Homo sapiens (Human), UniProt P34969); assay: Radiolabel Binding Studies for Serotonin 5-HT7 Receptors, Method 2 ([3H]-5HT competition; Ki and percent inhibition at 10 μM); conditions: radioligand competition binding
Method: Radiolabel Binding Studies for Serotonin 5-HT7 Receptors, Method 2:
A solution of the compound of the disclosure to be tested is prepared as a 1-mg/ml stock in Assay Buffer or DMSO according to its solubility. A similar stock of the reference compound chlorpromazine is also prepared as a positive control. Eleven dilutions (5×assay concentration) of the compound of the disclosure and chlorpromazine are prepared in the Assay Buffer by serial dilution to yield final corresponding assay concentrations ranging from 10 pM to 10 μM.
A stock concentration of 5 nM [^3H]-5-Hydroxytryptamine ([^3H]-5HT) is prepared in 50 mM Tris-HCl, 10 mM MgCl2, 1 mM EDTA, pH 7.4 (Assay Buffer). Aliquots (50 μl) of radioligand are dispensed into the wells of a 96-well plate containing 100 μl of Assay Buffer. Duplicate 50-μl aliquots of the compound of the disclosure test and chlorpromazine positive control reference compound serial dilutions are added.
Membrane fractions of cells expressing recombinant 5HT7 receptors (50 L) are dispensed into each well. The membranes are prepared from stably transfected cell lines expressing 5HT7 receptors cultured on 10-cm plates by harvesting PBS-rinsed monolayers, resuspending and lysing in chilled, hypotonic 50 mM Tris-HCl, pH 7.4, centrifuging at 20,000×g, decanting the supernatant and storing at −80° C.; the membrane preparations are resuspended in 3 ml of chilled Assay Buffer and homogenized by several passages through a 26 gauge needle before using in the assay.
The 250-μl reactions are incubated at room temperature for 1.5 hours, then harvested by rapid filtration onto 0.3% polyethyleneimine-treated, 96-well filter mats using a 96-well Filtermate harvester. Four rapid 500-μl washes are performed with chilled Assay Buffer to reduce non-specific binding. The filter mats are dried, then scintillant is added to the filters and the radioactivity retained on the filters is counted in a Microbeta scintillation counter.
Raw data (dpm) representing total radioligand binding (i.e., specific+non-specific binding) are plotted as a function of the logarithm of the molar concentration of the competitor (i.e., test or reference compound). Non-linear regression of the normalized (i.e., percent radioligand binding compared to that observed in the absence of test or reference compound) raw data is performed in Prism 4.0 (GraphPad Software) using the built-in three parameter logistic model describing ligand competition binding to radioligand-labeled sites:
where bottom equals the residual radioligand binding measured in the presence of 10 μM reference compound (i.e., non-specific binding) and top equals the total radioligand binding observed in the absence of competitor. The log IC50 (i.e., the log of the ligand concentration that reduces radioligand binding by 50%) is thus estimated from the data and used to obtain the Ki by applying the Cheng-Prusoff approximation:
where [ligand] equals the assay radioligand concentration and KD equals the affinity constant of the radioligand for the target receptor.
Compounds of the disclosure are also screened at a single concentration of 10 μM using the same method described for the Radiolabel Binding Studies for Serotonin 5HT7 receptors to determine the percent inhibition of [^3H]-5HT binding.

Sequence of 5HT7 receptors (P34969 whole entry): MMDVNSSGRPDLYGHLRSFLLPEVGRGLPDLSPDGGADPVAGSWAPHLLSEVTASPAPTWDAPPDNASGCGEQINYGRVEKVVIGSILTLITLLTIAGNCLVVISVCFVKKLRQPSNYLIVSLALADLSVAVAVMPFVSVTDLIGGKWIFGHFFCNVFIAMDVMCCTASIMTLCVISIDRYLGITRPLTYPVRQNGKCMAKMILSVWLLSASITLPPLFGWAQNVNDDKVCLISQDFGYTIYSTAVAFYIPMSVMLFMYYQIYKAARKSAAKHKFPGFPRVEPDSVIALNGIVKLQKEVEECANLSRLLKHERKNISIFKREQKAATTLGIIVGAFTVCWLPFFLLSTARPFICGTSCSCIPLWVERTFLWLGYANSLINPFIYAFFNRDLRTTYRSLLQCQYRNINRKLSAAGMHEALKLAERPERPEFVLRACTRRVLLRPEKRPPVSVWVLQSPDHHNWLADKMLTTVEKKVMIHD

Row | SMILES | IC50
1 | Cc1ccc(N2CCN(CCC3CC4(CCN(S(=O)(=O)c5ccc(Cl)cc5)CC4)C(=O)O3)CC2)cc1 (centres unmarked) [Example 12] | 108 nM
2 | Cc1ccc(N2CCN(CCC3CC4(CCN(Cc5ccccc5)CC4)C(=O)O3)CC2)cc1 (centres unmarked) [Entry 1] | 18 nM
3 | CC(=O)N1CCC2(CC1)CC(CCN1CCN(c3ccc(C)cc3)CC1)OC2=O (centres unmarked) [Entry 4] | 122 nM
4 | Cc1ccc(N2CCN(CCC3CC4(CCNCC4)C(=O)O3)CC2)cc1 (centres unmarked) [Entry 2] | 149 nM
5 | COC(=O)N1CCC2(CC1)CC(CCN1CCN(c3ccc(C)cc3)CC1)OC2=O (centres unmarked) [Entry 3] | 81 nM
6 | CNC(=O)N1CCC2(CC1)CC(CCN1CCN(c3ccc(C)cc3)CC1)OC2=O (centres unmarked) [Entry 5] | 102 nM
7 | COc1ccc(S(=O)(=O)N2CCC3(CC2)CC(CCN2CCN(c4ccc(C)cc4)CC2)OC3=O)cc1 (centres unmarked) [Entry 11] | 77 nM

Now from value to molecule:

Row | IC50 | SMILES
8 | 75 nM | CS(=O)(=O)N1CCC2(CC1)CC(CCN1CCN(c3ccc(O)cc3N3CCOCC3)CC1)OC2=O (centres unmarked) [Example 21]
9 | 96 nM | Cc1ccc(N2CCN(CCC3CC4(CCN(S(=O)(=O)C5CCOCC5)CC4)C(=O)O3)CC2)cc1 (centres unmarked) [Example 13]
10 | 93 nM | Cc1ccc(N2CCN(CCC3CC4(CCN(S(C)(=O)=O)CC4)C(=O)O3)CC2)cc1 (centres unmarked) [Entry 6]
11 | 46 nM | Cc1nc2cccc(N3CCN(CCC4CC5(CCN(S(C)(=O)=O)CC5)C(=O)O4)CC3)c2[nH]1 (centres unmarked) [Entry 8]
12 | 461 nM | CS(=O)(=O)N1CCC2(CC1)CC(CCN1CCN(c3ccc(C#N)cc3N3CCOCC3)CC1)OC2=O (centres unmarked) [Entry 19]
13 | 202 nM | CS(=O)(=O)N1CCC2(CC1)CC(CCN1CCN(c3ccc(O)cc3)CC1)OC2=O (centres unmarked) [Example 22]
14 | 34 nM | CS(=O)(=O)N1CCC2(CC1)CC(CCN1CCN(c3ccccc3N3CCOCC3)CC1)OC2=O (centres unmarked) [Entry 7]
15 | 64 nM | Cc1ccc(N2CCN(CCC3CC4(CCN(S(=O)(=O)c5ccccc5)CC4)C(=O)O3)CC2)cc1 (centres unmarked) [Entry 10]
16 | 303 nM | CS(=O)(=O)N1CCC2(CC1)CC(CCN1CCN(c3ccc(Cl)cc3)CC1)OC2=O (centres unmarked) [Entry 9]
17 | 67 nM | Cc1ccc(N2CCN(CCC3CC4(CCN(S(C)(=O)=O)CC4)C(=O)O3)CC2)c(N2CCOCC2)c1 (centres unmarked) [Example 20]
